What follows are compounds tested against Carbonic anhydrase 2 (Homo sapiens, UniProt P00918).

Ki | SMILES
8.7 nM | Cc1nnc(-c2cc(S(N)(=O)=O)c(Cl)cc2Cl)o1

The compounds below were run against Carbonic anhydrase 9 (Homo sapiens, UniProt Q16790).

SMILES | Ki
NS(=O)(=O)c1cc(C(=O)NNC(=S)Nc2ccccc2)c(Cl)cc1Cl | 31 nM
NS(=O)(=O)c1ccc(NC(=O)Nc2cc(S(N)(=O)=O)c(Cl)cc2Cl)cc1 | 15.8 nM
NS(=O)(=O)c1cc(-c2nnc(Nc3ccc(Cl)cc3)o2)c(Cl)cc1Cl | 15.1 nM
NS(=O)(=O)c1cc(-c2nnc(Nc3ccccc3)o2)c(Cl)cc1Cl | 13.8 nM
NS(=O)(=O)c1cc(-c2nnc(-c3ccccc3)o2)c(Cl)cc1Cl | 13.2 nM
NS(=O)(=O)c1cc(C(=O)NNC(=O)c2ccco2)c(Cl)cc1Cl | 3.9 nM
NS(=O)(=O)c1cc(NC(=O)N2CCN(Cc3ccc4c(c3)OCO4)CC2)c(Cl)cc1Cl | 76 nM
Cc1ccc(C(=O)NNC(=O)c2cc(S(N)(=O)=O)c(Cl)cc2Cl)cc1 | 5.5 nM
NS(=O)(=O)c1cc(C(=O)NNC(=S)Nc2ccc(Cl)cc2)c(Cl)cc1Cl | 27 nM
NS(=O)(=O)c1cc(NC(=O)Nc2ccc(Cl)cc2)c(Cl)cc1Cl | 7.1 nM
NS(=O)(=O)c1cc(NC(=O)NOCc2ccccc2)c(Cl)cc1Cl | 18.9 nM
NS(=O)(=O)c1cc(C(=O)NNC(=O)c2ccccc2)c(Cl)cc1Cl | 10.2 nM

Results, then the compound that gave them:

Ki | SMILES
7 nM | NS(=O)(=O)c1cc(NC(=O)Nc2ccccc2)c(Cl)cc1Cl
38 nM | NS(=O)(=O)c1cc(NC(=O)NCCCN2CCOCC2)c(Cl)cc1Cl
15.3 nM | Cc1ccc(S(=O)(=O)NC(=O)NNC(=O)c2cc(S(N)(=O)=O)c(Cl)cc2Cl)cc1
13.6 nM | NS(=O)(=O)c1cc(-c2nnc(-c3ccccc3)s2)c(Cl)cc1Cl
9.7 nM | NS(=O)(=O)c1cc(-c2nnc(-c3ccccc3)[nH]2)c(Cl)cc1Cl
12.5 nM | NS(=O)(=O)c1cc(NC(=O)NNC(=O)c2ccccc2)c(Cl)cc1Cl
10.9 nM | NS(=O)(=O)c1cc(-c2nnc(-c3ccc(Cl)cc3)o2)c(Cl)cc1Cl

What follows are compounds tested against Carbonic anhydrase 12 (Homo sapiens, UniProt O43570).
Sequence of Carbonic anhydrase 12 (O43570 whole entry): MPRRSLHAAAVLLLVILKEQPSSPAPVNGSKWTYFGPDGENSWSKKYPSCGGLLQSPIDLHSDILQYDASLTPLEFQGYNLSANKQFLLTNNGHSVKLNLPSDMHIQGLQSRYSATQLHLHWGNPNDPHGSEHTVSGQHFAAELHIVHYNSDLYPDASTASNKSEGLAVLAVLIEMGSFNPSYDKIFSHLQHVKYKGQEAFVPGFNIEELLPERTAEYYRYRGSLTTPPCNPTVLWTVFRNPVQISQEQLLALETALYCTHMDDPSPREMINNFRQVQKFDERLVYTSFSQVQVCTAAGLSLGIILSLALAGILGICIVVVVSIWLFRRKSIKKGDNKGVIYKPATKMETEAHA

Ki | SMILES
6.3 nM | Cc1nnc(-c2cc(S(N)(=O)=O)c(Cl)cc2Cl)o1

What follows are compounds tested against Carbonic anhydrase 1 (Homo sapiens, UniProt P00915).
Sequence of Carbonic anhydrase 1 (P00915 whole entry): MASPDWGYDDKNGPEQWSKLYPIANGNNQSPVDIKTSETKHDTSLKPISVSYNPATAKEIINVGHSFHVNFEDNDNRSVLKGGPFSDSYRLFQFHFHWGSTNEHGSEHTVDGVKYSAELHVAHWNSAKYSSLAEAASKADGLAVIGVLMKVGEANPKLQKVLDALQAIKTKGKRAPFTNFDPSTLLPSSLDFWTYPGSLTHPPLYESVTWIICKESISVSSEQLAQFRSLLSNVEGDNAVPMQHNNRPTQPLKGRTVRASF

Ki | SMILES
718 nM | Cc1nnc(-c2cc(S(N)(=O)=O)c(Cl)cc2Cl)o1

From ChEMBL document CHEMBL3286249 (Eur J Med Chem, 2014)
